# Measured values taken from US10370333B2 (Sanford Burnham Prebys Medical Discovery Institute, priority 2012, dated 2019).
# Molecular target: TNAP (Homo sapiens (Human), UniProt P05186)
# Test: TNAP (PPi) inhibition assay, pyrophosphate as substrate
# Type: biochemical
# Summary of the method: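 Enzyme source was conditioned serum-free medium from COS-1 cells transiently expressing tagged human TNAP, dialyzed against TBS with MgCl2/ZnCl2. Activity on natural substrate PPi at pH 7.4 read as liberated phosphate (Biomol Green).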
row,IC50 [nM],SMILES
1,< 100,"COc1ccc(Cl)cc1S(=O)(=O)Nc1cncc(-c2ccccc2)c1 [Example III-27, 5-Chloro-2-methoxy-N-(5-phenyl-pyridin-3-yl)-benzenesulfonamide]"
2,100 to 1000,"COc1ccc(Br)cc1S(=O)(=O)Nc1cccnn1 [Example V-24, 5-Bromo-2-methoxy-N-pyridazin-3-yl-benzenesulfonamide]"
3,< 100,"COc1ccc(OC)c(S(=O)(=O)Nc2cncc(-c3cccs3)c2)c1 [Example III-73, 2,5-Dimethoxy-N-(5-(thiophen-2-yl)pyridin-3-yl)benzenesulfonamide]"
4,< 100,"COc1ccc(Br)cc1S(=O)(=O)Nc1cncc(-c2ccsc2)c1 [Example III-77, 5-Bromo-2-methoxy-N-(5-(thiophen-3-yl)pyridin-3-yl)benzenesulfonamide]"
5,< 100,"O=S(=O)(Nc1cncc(-c2ccc(F)cc2)c1)c1cc(Cl)ccc1OC(F)(F)F [Example XI-8, 5-Chloro-N-(5-(4-fluorophenyl)pyridin-3-yl)-2-(trifluoromethoxy)benzenesulfonamide]"
6,> 1000,"COc1ccc(S(=O)(=O)Nc2cccnc2)cc1Cl [Example I-12, 3-Chloro-4-methoxy-N-pyridin-3-yl-benzenesulfonamide]"
7,< 100,"COc1ccc(OC)c(S(=O)(=O)Nc2cncc(C(=O)NC3CCCCC3)c2)c1 [Example IV-39, 5-(2,5-Dimethoxyphenylsulfonamido)-N-cyclohexylnicotinamide]"
8,> 1000,"COc1ccc(OC)c(S(=O)(=O)Nc2ccsc2)c1 [Example V-2, 2,5-Dimethoxy-N-(thiophen-3-yl)benzenesulfonamide]"
9,< 100,"COc1ccc(Br)cc1S(=O)(=O)Nc1cncc(-c2ccco2)c1 [Example III-68, 5-Bromo-N-(5-(furan-2-yl)pyridin-3-yl)-2-methoxybenzenesulfonamide]"
10,< 100,"COc1ccc(-c2cncc(NS(=O)(=O)c3cc(Br)ccc3OC)c2)c(OC)c1 [Example III-56, 5-Bromo-N-(5-(2,4-dimethoxyphenyl)pyridin-3-yl)-2-methoxybenzenesulfonamide]"
11,< 100,COc1ccc(-c2cncc(NS(=O)(=O)c3cc(OC)ccc3OC)c2)cc1 [Example III-1]
12,100 to 1000,"O=S(=O)(Nc1cnc2ccccc2c1)c1cc(F)ccc1OC(F)(F)F [Example X-2, 5-Fluoro-N-quinolin-3-yl-2-trifluoromethoxy-benzenesulfonamide]"
13,< 100,"COc1ccc(Cl)cc1S(=O)(=O)Nc1cncc(-c2nccs2)c1 [Example III-81, 5-Chloro-2-methoxy-N-(5-(thiazol-2-yl)pyridin-3-yl)benzenesulfonamide]"
14,> 1000,"COc1ccc(Br)cc1S(=O)(=O)Nc1cncc(C(=O)N2CCOCC2)c1 [Example IV-24, 5-Bromo-2-methoxy-N-(5-(morpholine-4-carbonyl)pyridin-3-yl)benzenesulfonamide]"
15,> 1000,"COc1ccc(Br)cc1S(=O)(=O)Nc1ccn(C)n1 [Example V-9, 5-Bromo-2-methoxy-N-(1-methyl-1H-pyrazol-3-yl)-benzenesulfonamide]"
16,< 100,"COC(=O)c1ccc(OC)c(S(=O)(=O)Nc2cnc3ccccc3c2)c1 [Example II-13, Methyl 4-methoxy-3-(N-(quinolin-3-yl)sulfamoyl)benzoate]"
17,< 100,"COc1ccc(OC)c(S(=O)(=O)Nc2cncc(-c3ccccc3)c2)c1 [Example III-25, N-(5-Phenyl-pyridin-3-yl)-2,5-Dimethoxy-benzenesulfonamide]"

# Further lines, the compound ahead of its results:
row,SMILES,IC50 [nM]
1,"COc1ccc(Br)cc1S(=O)(=O)Nc1cncc(-c2ccccc2C(F)(F)F)c1 [Example III-44, 5-Bromo-2-methoxy-N-[5-(2-trifluoromethyl-phenyl)-pyridin-3-yl]-benzenesulfonamide]",100 to 1000
2,"COc1ccc(Br)cc1S(=O)(=O)Nc1cc[nH]n1 [Example V-7, 5-Bromo-2-methoxy-N-(1H-pyrazol-3-yl)-benzenesulfonamide]",> 1000
3,"O=S(=O)(Nc1cncc(-c2cscn2)c1)c1cc(Br)ccc1OC(F)(F)F [Example XI-29, 5-Bromo-N-(5-(thiazol-4-yl)pyridin-3-yl)-2-(trifluoromethoxy)benzenesulfonamide]",< 100
4,"COc1ccc(OC)c(S(=O)(=O)Nc2nnc(C)o2)c1 [Example V-22, 2,5-Dimethoxy-N-(5-methyl-[1,3,4]oxadiazol-2-yl)-benzenesulfonamide]",> 1000
5,"COc1ccc(Br)cc1S(=O)(=O)Nc1ccc(N)nc1 [Example VIII-3, 5-Bromo-2-methoxy-N-(6-Amino-pyridin-3-yl)-benzenesulfonamide]",> 1000
6,"COc1ccc(Cl)cc1S(=O)(=O)Nc1cncc(-c2cccc(Cl)c2)c1 [Example III-54, 5-Chloro-N-[5-(3-chloro-phenyl)-pyridin-3-yl]-2-methoxy-benzenesulfonamide]",100 to 1000
7,"COc1ccc(OC(F)(F)F)cc1S(=O)(=O)Nc1cncc(-c2cncs2)c1 [Example XI-27, 2-Methoxy-N-(5-(thiazol-5-yl)pyridin-3-yl)-5-(trifluoromethoxy)benzenesulfonamide]",100 to 1000
8,"COc1ccc(C(=O)N2CCN(C)CC2)cc1S(=O)(=O)Nc1cccnc1 [Example I-22, 2-Methoxy-5-(4-methyl-piperazine-1-carbonyl)-N-pyridin-3-yl-benzenesulfonamide]",> 1000
9,"COc1ccc(Br)cc1S(=O)(=O)Nc1ncco1 [Example V-3, 5-Bromo-2-methoxy-N-oxazol-2-yl-benzenesulfonamide]",> 1000
10,"COc1ccc(OC(F)(F)F)cc1S(=O)(=O)Nc1cncc(-c2cnccn2)c1 [Example XI-22, 2-Methoxy-N-(5-(pyrazin-2-yl)pyridin-3-yl)-5-(trifluoromethoxy)benzenesulfonamide]",100 to 1000
11,"COc1ccc(OC)c(S(=O)(=O)Nc2cncc(-c3ccc(F)cc3)c2)c1 [Example III-16, N-[5-(4-Fluoro-phenyl)-pyridin-3-yl]-2,5-dimethoxy-benzenesulfonamide]",< 100
12,"COc1ccc(Cl)cc1S(=O)(=O)Nc1cncc(C(=O)NC2CCCCC2)c1 [Example IV-30, 5-(5-Chloro-2-methoxyphenylsulfonamido)-N-cyclohexylnicotinamide]",< 100
13,"COc1ccc(OC(F)(F)F)cc1S(=O)(=O)Nc1cncc(C(=O)Oc2ccccc2)c1 [Example XII-18, Phenyl 5-(2-methoxy-5-(trifluoromethoxy)phenylsulfonamido)nicotinate]",< 100
14,"COc1ccc(OC)c(S(=O)(=O)Nc2cncc(-c3cnn(C)c3)c2)c1 [Example III-88, 2,5-Dimethoxy-N-(5-(1-methyl-1H-pyrazol-4-yl)pyridin-3-yl)benzenesulfonamide]",< 100
15,"COc1ccc(OC)c(S(=O)(=O)Nc2cnc3ccc(C(N)=O)cc3c2)c1 [Example IX-10, 3-(2,5-Dimethoxy-benzenesulfonylamino)-quinoline-6-carboxylic Acid Amide]",100 to 1000
16,"COc1ccc(OC)c(S(=O)(=O)Nc2cncc(-c3ccccn3)c2)c1 [Example III-58, N-([2,3′-Bipyridin]-5′-yl)-2,5-dimethoxybenzenesulfonamide]",< 100
17,"COCCNC(=O)c1cncc(NS(=O)(=O)c2cc(Br)ccc2OC)c1 [Example IV-21, 5-(5-Bromo-2-methoxyphenylsulfonamido)-N-(2-methoxyethyl)nicotinamide]",100 to 1000
18,"COc1ccc(Br)cc1S(=O)(=O)Nc1ccnnc1 [Example V-26, 5-Bromo-2-methoxy-N-pyridazin-4-yl-benzenesulfonamide]",> 1000
19,"COc1ccc(Cl)cc1S(=O)(=O)Nc1cncc(-c2ncccn2)c1 [Example III-93, 5-Chloro-2-methoxy-N-(5-(pyrimidin-2-yl)pyridin-3-yl)benzenesulfonamide]",< 100
20,"COC(=O)c1cncc(NS(=O)(=O)c2cc(OC)ccc2OC)c1 [Example IV-11, Methyl 5-(2,5-dimethoxyphenylsulfonamido)nicotinate]",< 100
21,"COc1ccc(OC)c(S(=O)(=O)Nc2cncc(-c3ccc(C#N)cc3)c2)c1 [Example III-31, N-(5-(4-Cyanophenyl)pyridin-3-yl)-2,5-dimethoxybenzenesulfonamide]",< 100
22,"COc1ccc(OC(F)(F)F)cc1S(=O)(=O)Nc1cncc(-c2ccccn2)c1 [Example XI-19, N-([2,3′-Bipyridin]-5′-yl)-2-methoxy-5-(trifluoromethoxy)benzenesulfonamide]",100 to 1000
23,"Cc1ccc(OC(F)(F)F)cc1S(=O)(=O)Nc1cnc2ccccc2c1 [Example X-5, 2-methyl-N-quinolin-3-yl-5-trifluoromethoxy-benzenesulfonamide]",> 1000
24,"COc1ccc(OC)c(S(=O)(=O)Nc2cncc(C(=O)N3CCN(C)CC3)c2)c1 [Example IV-44, 2,5-Dimethoxy-N-(5-(4-methylpiperazine-1-carbonyl)pyridin-3-yl)benzenesulfonamide]",< 100
25,"CCN(CC)c1ccc(NS(=O)(=O)c2cc(OC)ccc2OC)cn1 [Example VIII-10, N-(6-(Diethylamino)pyridin-3-yl)-2,5-dimethoxybenzenesulfonamide]",> 1000
26,"COc1ccc(Br)cc1S(=O)(=O)Nc1ccc(N2CCOCC2)nc1 [Example VIII-1, 5-Bromo-2-methoxy-N-(6-morpholinopyridin-3-yl)benzenesulfonamide]",> 1000
27,"COCCN(c1cnc2ccccc2c1)S(=O)(=O)c1cc(Br)ccc1OC [Example VII-7, 5-Bromo-2-methoxy-N-(2-methoxyethyl)-N-(quinolin-3-yl)benzenesulfonamide]",> 1000
28,"COc1ccc(Br)cc1S(=O)(=O)Nc1ccc(N2CCCCC2)nc1 [Example VIII-17, 5-Bromo-2-methoxy-N-(3,4,5,6-tetrahydro-2H-[1,2′]bipyridinyl-5′-yl)-benzenesulfonamide]",> 1000
29,"CNc1ccc(NS(=O)(=O)c2cc(Br)ccc2OC)cn1 [Example VIII-5, 5-Bromo-2-methoxy-N-(6-methylamino-pyridin-3-yl)-benzenesulfonamide]",100 to 1000
30,"COc1ccc(Br)cc1S(=O)(=O)Nc1nnc(C(F)(F)F)s1 [Example V-19, 5-Bromo-2-methoxy-N-(5-trifluoromethyl-[1,3,4]thiadiazol-2-yl)-benzenesulfonamide]",100 to 1000
